Literature values as cited in US8053472B2, “Use of the acetyl L-carnitine in association with the biotin for the treatment of patients with type 2 insulin-resistant diabetes mellitus” (Sigma-Tau Industrie Farmaceutiche Riunite S.p.A., priority 2001, dated 2011).

Tested on: hypertriglyceridemic rats with noninsulin-dependent diabetes mellitus
Conditions: high doses of biotin added to the diet

O=C(O)CCCC[C@@H]1SC[C@@H]2NC(=O)N[C@@H]21 [biotin]
altered tolerance to glucose: improves
